Each block holds one molecule with its values, some of them ahead of it.
Columns and labels:
cyclooxygenase-2 = target: cyclooxygenase-2; design: method as in PMID 21211951; settings: LPS-induced RAW264.7 macrophages; cited from earlier work
[1] = Stability of stock solutions and working standard solutions; type: physicochemical; settings: for Mean recovery: n = 8, ± SD
Method: The stability of the stock solutions (1 mg/mL of each analyte and ISs) was evaluated after 30 days of storage in a refrigerator (4°C, amber bottles). The stored solutions were diluted with acetonitrile/water (70:30 v/v) to obtain the same concentration levels as the short-term stability assay. The stability of the stock solutions was evaluated by comparing the mean recovery of the analytes and IS obtained from stored samples to the mean values obtained with freshly prepared samples, at the same concentration levels. The stability of the working standard solutions was assessed using a procedure similar to that described for stock solution stability. […]

[2] = Initial screening of bioavailability: 60 mL of guaco syrup orally; type: in vivo, human; settings: 60 mL guaco syrup (17.6 mg COU, 1.1 mg OCA, 8.9 mg KAU), up to 600 min
Method: All the volunteers fasted for 8 h prior to the administration of guaco syrup and blood collection. […] The anticoagulant used was tetrasodium edetate. […] The pharmacokinetic analysis was performed using a non-compartmental model, considering an extravascular administration route and using WinNonlin Professional software, version 5.3. The relationships among the areas under the curves (r areas = AUC0-t/AUC0-inf), were used to confirm the suitability of the experimental design.

[3] = system: carrageenan-induced paw edema; design: method as in PMID 21211951; settings: mice, 50 mg/kg, 5 h after the induction of inflammation; cited from earlier work
[4] = Stability in human plasma: short-term, freeze-thaw and long-term; type: in vitro ADME; settings: for Mean recovery: n = 8, ± SD
Method: The samples were vortexed for 2 min and then were kept at room temperature for 8 h. Afterward, the samples were spiked with 50 μL of IS solution and were vortexed (2 min) and submitted to the extraction procedures. The short-term stability was evaluated by comparing the mean recovery of the analytes and the IS obtained from stored samples with the mean values obtained with freshly prepared samples, at same concentration levels.
(§1) Freeze-thawed, post-preparative and long-term stability assay samples were prepared and evaluated similar to the short-term stability samples. However, the freeze thawing assay was assessed after undergoing three freeze-thaw cycles (one freeze-thaw cycle per day on three consecutive days) and post-preparative assay, maintaining the extracted samples for 24 hours in the Sample Manager (20°C, transparent vials). The long-term stability of human plasma stored at -40°C was assessed at the end of the study (60 days).

[5] = system: synthesis of nitric oxide; design: method as in PMID 21211951; settings: LPS-induced RAW264.7 macrophages; read-out: IC50, inhibition of the synthesis of nitric oxide; cited from earlier work
[6] = system: endothelium-intact or denuded rat aortic rings; design: method as in PMID 15178370, PMID 11864765; settings: cited from earlier work
[7] = Post-preparative stability of extracted samples; type: physicochemical; settings: for Mean recovery: n = 8, ± SD
Method: as §1

[8] = system: release of prostaglandin E2; design: method as in PMID 21211951; settings: LPS-induced RAW264.7 macrophages; cited from earlier work
[9] = design: method as in PMID 7150456; settings: cited from earlier work
[10] = 8 h at room temperature, internal standard level (6-methylcoumarin 500.0, Isoferulic acid 1000.0, Prednisone 500.0 ng/mL)
[11] = 8 h at room temperature, internal standard level, stored vs freshly prepared
[12] = 30 days at 4 °C (stock solutions), internal standard level (500.0, 1000.0, 500.0 ng/mL)
[13] = 30 days at 4 °C, internal standard level
[14] = Short-term, internal standard level
[15] = Short-term, internal standard level (500.0, 1000.0, 500.0 ng/mL)
[16] = post-preparative, internal standard level
[17] = post-preparative, internal standard level (500.0, 1000.0, 500.0 ng/mL)

Mean recovery ([1]; 8 h at room temperature, high level (Coumarin 1250.0, 7-hydroxycoumarin 750.0, o-coumaric acid 750.0, Kaurenoic acid 500.0 ng/mL)): 516.6 ± 5.1 ng/mL | RE ([1]; 8 h at room temperature, high level, stored vs freshly prepared): 3.33% | Mean recovery ([1]; 8 h at room temperature, low level (Coumarin 50.0, 7-hydroxycoumarin 12.5, o-coumaric acid 25.0, Kaurenoic acid 10.0 ng/mL)): 10.2 ± 0.7 ng/mL | RE ([1]; 8 h at room temperature, low level, stored vs freshly prepared): 8.94% | Mean recovery ([1]; 30 days at 4 °C (stock solutions), high level (1250.0, 750.0, 750.0, 500.0 ng/mL)): 487.8 ± 34.9 ng/mL | Mean recovery ([1]; 30 days at 4 °C (stock solutions), low level (50.0, 12.5, 25.0, 10.0 ng/mL)): 9.75 ± 0.6 ng/mL | RE ([1]; 30 days at 4 °C, high level): 3.33% | RE ([1]; 30 days at 4 °C, low level): -2.46% | plasma levels after guaco syrup without spiking [2]: did not provide sufficient levels | Mean recovery ([4]; Long-term: plasma at -40°C, 60 days, high level (1250.0, 750.0, 750.0, 500.0 ng/mL)): 463.2 ± 12.3 ng/mL | Mean recovery ([4]; Long-term: plasma at -40°C, 60 days, low level (50.0, 12.5, 25.0, 10.0 ng/mL)): 8.8 ± 0.3 ng/mL | RE ([4]; Long-term, high level): -7.36% | RE ([4]; Long-term, low level): -11.70% | Mean recovery ([4]; Short-term: plasma at room temperature for 8 h, high level (1250.0, 750.0, 750.0, 500.0 ng/mL)): 498.9 ± 7.6 ng/mL | Mean recovery ([4]; Short-term: plasma at room temperature for 8 h, low level (50.0, 12.5, 25.0, 10.0 ng/mL)): 10.0 ± 0.3 ng/mL | RE ([4]; Short-term, high level): -0.22% | RE ([4]; Short-term, low level): 0.23% | RE ([4]; freeze–thaw cycles, high level): 0.49% | RE ([4]; freeze–thaw cycles, low level): -0.41% | Mean recovery ([4]; three freeze–thaw cycles, plasma, high level (1250.0, 750.0, 750.0, 500.0 ng/mL)): 502.5 ± 6.1 ng/mL | Mean recovery ([4]; three freeze–thaw cycles, plasma, low level (50.0, 12.5, 25.0, 10.0 ng/mL)): 9.9 ± 0.4 ng/mL | Mean recovery ([7]; post-preparative: extracted samples 24 hours at 20°C, high level (1250.0, 750.0, 750.0, 500.0 ng/mL)): 509.8 ± 6.6 ng/mL | Mean recovery ([7]; post-preparative: extracted samples 24 hours at 20°C, low level (50.0, 12.5, 25.0, 10.0 ng/mL)): 9.8 ± 0.4 ng/mL | RE ([7]; post-preparative, high level): 1.96% | RE ([7]; post-preparative, low level): -1.70%
Structure (SMILES): C=C1C[C@@]23CC[C@H]4[C@@](C)(CCC[C@@]4(C)C(=O)O)[C@@H]2CC[C@@H]1C3 [KAU, kaurenoic acid]
IC50, expression of cyclooxygenase-2 activity (cyclooxygenase-2): 3.5 µg/mL | reduction of the swelling [3]: 34.4% | IC50 [5]: 51.7 µM | concentration promoting vasodilatory effects in rat aortas ([6]; endothelium-intact or denuded rings): greater than 10 mM | concentration with concentration-dependent activity on vascular smooth muscle ([6]; rat aortic rings pre-contracted with phenylephrine and potassium chloride): ≥ 10 µM | IC50 [8]: 106 µM

Mean recovery [1, 10]: 470.5 ± 26.6 ng/mL | RE [1, 11]: -5.90% | Mean recovery [1, 12]: 497.0 ± 13.9 ng/mL | RE [4, 14]: 0.43% | Mean recovery [4, 15]: 502.2 ± 11.1 ng/mL | RE [7, 16]: -4.14% | Mean recovery [7, 17]: 479.3 ± 16.9 ng/mL
Structure (SMILES): C[C@]12C=CC(=O)C=C1CC[C@@H]1[C@@H]2C(=O)C[C@@]2(C)[C@H]1CC[C@]2(O)C(=O)CO [Prednisone, prednisone, reference compound]

The next lines start with the molecule.

Structure (SMILES): Cc1ccc2oc(=O)ccc2c1 [6-methylcoumarin, reference compound]
Mean recovery [1, 10]: 497.3 ± 3.8 ng/mL | RE [1, 11]: -0.54% | Mean recovery [1, 12]: 480.6 ± 46.6 ng/mL | RE [1, 13]: -3.89% | RE [4, 14]: 0.45% | Mean recovery [4, 15]: 501.1 ± 1.6 ng/mL | RE [7, 16]: -6.38% | Mean recovery [7, 17]: 468.1 ± 22.6 ng/mL

Structure (SMILES): Cn1c(=O)c2[nH]cnc2n(C)c1=O [theophylline]
clearance [9]: 2.8 L/h

Structure (SMILES): COc1ccc(/C=C/C(=O)O)cc1O [Isoferulic acid, isoferulic acid, reference compound]
Mean recovery [1, 10]: 950.0 ± 75.2 ng/mL | RE [1, 11]: -5.00% | Mean recovery [1, 12]: 1037.5 ± 68.1 ng/mL | RE [1, 13]: 3.75% | RE [4, 14]: -0.07% | Mean recovery [4, 15]: 999.3 ± 62.2 ng/mL | RE [7, 16]: -1.35% | Mean recovery [7, 17]: 986.5 ± 31.7 ng/mL
